{"source": "patent US5708008A", "about": "“5-Substituted-3-(1,2,3,6-tetrahydropyridin-4-yl)-and 3-(piperidin-4-yl)-1H-indoles: new 5-HT1F agonists” (Eli Lilly and Company, priority 1996, dated 1998)", "key": {"[1]": {"tested_on": "protein extravasation induced by stimulation of the trigeminal ganglion", "test": "Inhibition of neuronal protein extravasation in dura after electrical stimulation of trigeminal ganglion", "assay_type": "in vivo, rat or guinea pig"}, "[2]": {"tested_on": "cephalic vascular smooth muscle", "conditions": "literature; cited from earlier work"}, "migraine": {"tested_on": "migraine", "conditions": "literature; cited from earlier work"}, "[3]": {"conditions": "literature; cited from earlier work"}, "[4]": {"conditions": "cited from earlier work"}, "[5]": {"conditions": "Rattus norvegicus, iv, read-out: Inhibition of Protein Extravasation, i.v. ID50"}}, "note": "Read-outs that look alike come from different tables or passages of the source."}
{"smiles": "Cn1cc(CCN2CCC(c3c[nH]c4ccc(F)cc34)CC2)cn1", "note": "[Compound II]", "values": [{"measurement": "ED50", "setting": "[1]; Rattus norvegicus, iv; read-out: Inhibition of Protein Extravasation, i.v. ID50", "value": "8.6e-07", "unit": "µmol/kg"}]}
{"smiles": "Oc1ccc2[nH]cc(C3CCNCC3)c2c1", "note": "[Compound III]", "values": [{"measurement": "ED50", "setting": "[1]; [5]", "value": "8.9e-06", "unit": "µmol/kg"}]}
{"smiles": "CNS(=O)(=O)Cc1ccc2[nH]cc(CCN(C)C)c2c1", "note": "[Compound I]", "values": [{"measurement": "ED50", "setting": "[1]; [5]", "value": "2.6e-05", "unit": "µmol/kg"}, {"measurement": "contraction of cephalic vascular smooth muscle", "setting": "[2]", "value": "contract cephalic vascular smooth muscle"}, {"measurement": "efficacy in treatment of migraine", "setting": "migraine", "value": "effective in the treatment of migraine"}, {"measurement": "crossing of the blood-brain barrier", "setting": "[3]", "value": "does not cross the blood-brain barrier"}, {"measurement": "side effects", "setting": "[4]; due to affinity for a number of serotonin receptor subtypes", "value": "undesirable side effects, particularly vasoconstriction"}, {"measurement": "bioavailability", "setting": "[4]; in vivo", "value": "low bioavailability"}, {"measurement": "duration of action", "setting": "[4]; in vivo", "value": "relatively short duration of action"}]}
{"smiles": "CCN(CC)C1CCc2cccc(Cl)c2C1", "note": "(centres unmarked) [Compound IV]", "values": [{"measurement": "ED50", "setting": "[1]; [5]", "value": 0.00012, "unit": "µmol/kg"}]}
{"smiles": "CN(C)C1CCc2[nH]c3ccc(O)cc3c2C1", "note": "(centres unmarked) [Compound V]", "values": [{"measurement": "ED50", "setting": "[1]; [5]", "value": "8.7e-06", "unit": "µmol/kg"}]}
